Experimental findings from ChEMBL document CHEMBL1201862, “PubChem BioAssay data set” (2004) are described below.

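Dose response: 5 concentrations. Exposure: 48 h. Format: 96-well plates. Endpoint: linear interpolation; highest concentration if not reached. Abbreviation: GI50, concentration required for 50% inhibition of growth.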 Calls of active or inactive are those of the source. Rule as the data show it: active = GI50 up to about 1.1 µM and inactive = higher.

Among the test systems are COLO 205; DU-145; HCC 2998; HL-60; HOP-92; K562; LOX IMVI; NCI-H460; NCI/ADR-RES; OVCAR-4; OVCAR-5; RPMI-8226; SK-MEL-28; SW-620; TK-10; UACC-62; UO-31; BT-549.
What all share (experiment): NCI anticancer screen, dose series, 48 h

Regarding `CC#CC(O)(C(=O)OC1CCCN(C)C1)C1=CC=CCC1` (stereo not given), the GI50 in the assay on COLO 205, with DU-145, with HCC 2998, in the assay with HL-60, with HOP-92 and in the assay on K562 was > 100 µM (inactive) each time. Also, the GI50 in the assay on LOX IMVI is > 100 µM (inactive); in the assay with NCI-H460, > 100 µM (inactive); in the assay on NCI/ADR-RES it was 0.49 µM (active); in the assay with OVCAR-4 it was > 100 µM (inactive); with OVCAR-5 it was > 100 µM (inactive); with RPMI-8226 it was > 100 µM (inactive). The GI50 with SK-MEL-28, with SW-620, in the assay on TK-10, in the assay on UACC-62 and with UO-31 was > 100 µM (inactive) throughout.
Turning to `O=C1/C(=C/c2ccc(Cl)cc2)N=C(c2ccccc2)N1c1ccc(S(=O)(=O)Nc2nccs2)cc1`, the GI50 in the assay with COLO 205 is 20.6 µM (inactive); in the assay with DU-145, > 100 µM (inactive); in the assay on HCC 2998 it was 18.9 µM (inactive); with HL-60, 30.5 µM (inactive); with HOP-92 it was 28.9 µM (inactive); in the assay with K562, 33 µM (inactive). The GI50 in the assay with LOX IMVI was 31.7 µM (inactive); in the assay on NCI-H460 it was 57.1 µM (inactive); in the assay with NCI/ADR-RES, 60.5 µM (inactive); with OVCAR-4, 50.8 µM (inactive); in the assay with OVCAR-5, > 100 µM (inactive); in the assay on RPMI-8226 it was 17.4 µM (inactive). The GI50 in the assay on SK-MEL-28 was 30.4 µM (inactive); in the assay with SW-620, 39.8 µM (inactive); in the assay with TK-10 it was 70.5 µM (inactive); in the assay with UACC-62 it was 18.7 µM (inactive); in the assay on UO-31 it was 23.6 µM (inactive).
With `O/N=C1/Nc2ccccc2C(=S)N2CSCC12` (stereo not given), the GI50 is > 100 µM (inactive) in the assay on BT-549; 41.9 µM (inactive) in the assay with COLO 205; > 100 µM (inactive) in the assay on DU-145; 32.4 µM (inactive) in the assay on HCC 2998; 22.8 µM (inactive) in the assay on K562; 62.8 µM (inactive) with LOX IMVI. Further, the GI50 was 17.3 µM (inactive) with NCI-H460; > 100 µM (inactive) in the assay with NCI/ADR-RES; > 100 µM (inactive) in the assay with OVCAR-4; > 100 µM (inactive) in the assay with OVCAR-5; > 100 µM (inactive) in the assay on RPMI-8226; > 100 µM (inactive) in the assay with SK-MEL-28. Further, the GI50 in the assay on SW-620 was 35.6 µM (inactive); in the assay with TK-10 it was > 100 µM (inactive); in the assay on UACC-62 it was 87.5 µM (inactive); in the assay on UO-31, > 100 µM (inactive).
Regarding `Cl/C(=N\c1cccc2ccccc12)N(c1ccccc1)c1ccccc1`, the GI50 in the assay on BT-549 was > 100 µM (inactive); in the assay on DU-145 it was > 100 µM (inactive); with HCC 2998 it was 19.7 µM (inactive); with K562, 31.8 µM (inactive); in the assay on LOX IMVI, > 100 µM (inactive); with NCI-H460, 28.4 µM (inactive). Moreover, the GI50 was > 100 µM (inactive) in the assay on NCI/ADR-RES; > 100 µM (inactive) in the assay on OVCAR-4; > 100 µM (inactive) in the assay on OVCAR-5; 27.1 µM (inactive) with RPMI-8226; > 100 µM (inactive) in the assay on SK-MEL-28; 92.7 µM (inactive) with SW-620. The GI50 in the assay with TK-10 is 72.3 µM (inactive); in the assay on UACC-62, 75.2 µM (inactive); in the assay with UO-31, > 100 µM (inactive).
Consider `N#Cc1[nH]c(=O)n(-c2ccc([N+](=O)[O-])cc2)c1N`, for which the GI50 in the assay with COLO 205, in the assay on DU-145, in the assay with HCC 2998, with HL-60, in the assay on HOP-92 and in the assay on K562 was > 10 µM (inactive) throughout. In addition, the GI50 with LOX IMVI is > 10 µM (inactive); in the assay with NCI-H460, 7.64 µM (inactive); with NCI/ADR-RES, > 10 µM (inactive); with OVCAR-4 it was > 10 µM (inactive); with OVCAR-5 it was > 10 µM (inactive); in the assay with RPMI-8226, > 10 µM (inactive). Further, the GI50 with SK-MEL-28, in the assay with SW-620, with TK-10, with UACC-62 and with UO-31 was > 10 µM (inactive) in each case.
Turning to `O=C(NNC(=O)c1ccncc1)C(=O)Nc1cc(Cl)c(Cl)cc1Cl`, the GI50 with BT-549 is > 100 µM (inactive); with HCC 2998 it was 21.5 µM (inactive); with HL-60 it was > 100 µM (inactive); in the assay on HOP-92, > 100 µM (inactive); in the assay with K562 it was > 100 µM (inactive); in the assay on LOX IMVI it was > 100 µM (inactive). The GI50 with NCI-H460, with NCI/ADR-RES, in the assay on OVCAR-4, in the assay on OVCAR-5, with RPMI-8226 and in the assay with SK-MEL-28 was > 100 µM (inactive) throughout. Further, the GI50 in the assay with SW-620, with TK-10, with UACC-62 and with UO-31 was > 100 µM (inactive) throughout.
Take `CSc1ccc(C(=O)C(=O)c2ccc(SC)s2)s1`: the GI50 in the assay with COLO 205 is > 10 µM (inactive); in the assay with DU-145 it was > 10 µM (inactive); in the assay with HCC 2998 it was > 10 µM (inactive); in the assay on HL-60 it was 3.43 µM (inactive); in the assay on HOP-92 it was > 10 µM (inactive); in the assay with K562, 6.32 µM (inactive). The GI50 in the assay with LOX IMVI is > 10 µM (inactive); in the assay on NCI-H460, > 10 µM (inactive); in the assay with NCI/ADR-RES, 8.45 µM (inactive); in the assay on OVCAR-4, 7.24 µM (inactive); in the assay with OVCAR-5 it was > 10 µM (inactive); with RPMI-8226, 4.86 µM (inactive). The GI50 in the assay on SK-MEL-28, in the assay with SW-620, in the assay with TK-10, with UACC-62 and in the assay on UO-31 was > 10 µM (inactive) throughout.
As for `CCOC(CN(C)C(=O)Nc1cccc2ccccc12)OCC`, the GI50 in the assay with COLO 205, in the assay on DU-145, in the assay on HCC 2998, with HL-60, in the assay with HOP-92 and with K562 was > 10 µM (inactive) in each case. Also, the GI50 in the assay on LOX IMVI, with NCI-H460, in the assay with NCI/ADR-RES, in the assay with OVCAR-4, in the assay on RPMI-8226 and in the assay on SK-MEL-28 was > 10 µM (inactive) throughout. The GI50 in the assay with SW-620, in the assay with TK-10, with UACC-62 and with UO-31 was > 10 µM (inactive) each time.
Take `c1ccc(/C(=N/Nc2ccncn2)c2ccccn2)cc1`: the GI50 in the assay with BT-549 is 35.1 µM (inactive); in the assay with COLO 205 it was 1.03 µM (active); in the assay on DU-145, 34.6 µM (inactive); in the assay with HCC 2998, > 100 µM (inactive); in the assay with K562 it was 0.528 µM (active); with NCI-H460 it was 30.1 µM (inactive). Besides, the GI50 in the assay with NCI/ADR-RES was 18.4 µM (inactive); in the assay on OVCAR-4 it was 49.1 µM (inactive); in the assay with OVCAR-5 it was 34.5 µM (inactive); in the assay on RPMI-8226, 9.75 µM (inactive); with SK-MEL-28, 70.3 µM (inactive); in the assay with SW-620 it was 6.32 µM (inactive). For the same compound, the GI50 in the assay with UACC-62 is 26.4 µM (inactive); with UO-31, 15.5 µM (inactive).
